This is an account of results in US11484558B2, “Epizootic hemorrhagic disease virus—tel aviv university (EHDV-TAU)—oncolytic virus for treating cancer” (Ramot at Tel-Aviv University Ltd., priority 2017, dated 2022).

In assay [1] the test system is LNCaP cells. Kind of assay: Trypan blue exclusion assay of infected LNCaP cells. It counts as cell-based, human. To be noted: for effect of inhibitor on EHDV-TAU-LNCaP-induced cell death: Q-VD-OPH 20 μM, Necrostatin-1 75 μM, 45 hours. How it is done: LNCaP cells were infected (+) or not (−) with EHDV-TAU-LNCaP (0.05 PFU/cell, for 45 hours) and treated (+) or not (−) with Q-VD-OPH (20 μM, for 45 hours during infection, or 20 hours during STS treatment), Necrostatin-1 (75 μM, for 45 hours) or staurosporine (STS, 1 μM, for 20 hours; serves as positive control of apoptosis induction). Graph depicts mean±SE (n=3) of the percentage of cell death under the indicated conditions. *p<0.05; **p<0.005.
LNCaP cells were infected or not with EHDV-TAU-LNCaP (0.05 PFU/cell, for 45 hours) and treated, or not, with IFNα or the indicated EpMs. Graph depicts mean±SE (n=5) of percentage of cell death under the indicated conditions; *p<0.05; ***p<0.0005.
Trypan blue exclusion assay—2×10^5 LNCaP cells/well in a 12-well plate were infected, or not, under the indicated experimental conditions. For each well, detached and attached cells were collected together and mixed with 0.5% trypan blue at a 1:1 ratio. Cells were classified by trypan blue exclusion by light microscopy. Trypan blue (0.5%) was from Beit Haemek Biological Industries, Israel (cat. #03-102-1B).

Assay [2] relates to LNCaP-JAK1 cells. Kind of assay: Immunoblot of NS3 in infected LNCaP-JAK1 cells. The settings on record: for effect of treatment on NS3 expression in EHDV-TAU-LNCaP-infected cells: LNCaP-JAK1, Baricitinib 0.5 μM, IFNα 200 U/ml, IFNγ 25 ng/ml, prior to and during infection. (In general: In western blotting, separated proteins are transferred to a membrane and probed.)

For the molecule `Nc1ncn([C@H]2C[C@H](O)[C@@H](CO)O2)c(=O)n1` [5AC, 5-Aza-2′-deoxycytidine], in assay [1] (combination of 5AC and IFNα, compared to IFNα or 5AC alone), the “effect on infection / virus-induced death” value is “reduced infection to a greater and significant degree”.
On to `CN1C(=O)C(Cc2c[nH]c3ccccc23)NC1=S` (stereo not shown) [Necrostatin-1], for which the “effect of inhibitor on EHDV-TAU-LNCaP-induced cell death” value in assay [1] was “partial reduction”.
On to `COC(=O)CC(NC(=O)C(NC(=O)c1ccc2ccccc2n1)C(C)C)C(=O)COc1c(F)cccc1F` (stereo not shown) [Q-VD-OPh, Quinolyl-valyl-O-methylaspartyl-[-2,6-difluorophenoxy]-methyl ketone, reference compound], for which the “effect of inhibitor on EHDV-TAU-LNCaP-induced cell death” value in assay [1] was “partial reduction”. Besides, the “effect on NS3 expression in infected, IL-6-treated cells” value in assay [2] (LNCaP-JAK1, Q-VD-OPh 20 μM, IL-6 5 ng/ml) is listed as “failed to rescue NS3 expression”.
For the molecule `O=C(O)[C@H](Cc1c[nH]c2ccccc12)N1C(=O)c2ccccc2C1=O` [RG108, N-phthalyl-L-tryptophan], in assay [1] (RG108 alone), the “protection from EHDV-TAU-LNCaP-induced cell death” value was “partial protection”. Besides, the “effect on virus-induced cell death” value in assay [1] (combination of IFN and RG108, relative to untreated infected cells) is “reduced it to half”.
As for IFNα, the “effect on EHDV-TAU-LNCaP-induced cell death” value in assay [1] (IFN alone) is given as “minimal reduction”. In addition, the “effect of treatment on NS3 expression in EHDV-TAU-LNCaP-infected cells” value in assay [2] was “abolished NS3 expression”.
Take “IL-6: Human IL-6 (PeproTech), pleiotropic cytokine”: the “effect on productive EHDV-TAU-LNCaP infection” value in assay [2] (LNCaP-JAK1, IL-6) is “reduce productive EHDV-TAU-LNCaP infection”.

B1: IFNγ: human IFNγ (PeproTech) (protein, UniProt P01579 24-161, looked up)
Interferon gamma: QDPYVKEAENLKKYFNAGHSDVADNGTLFLGILKNWKEESDRKIMQSQIVSFYFKLFKNFKDDQSIQKSVETIKEDMNVKFFNSNKKKRDDFEKLTNYSVTDLNVQRKAIHELIQVMAELSPAAKTGKRKRSQMLFRG
Regarding B1, the “effect of treatment on NS3 expression in EHDV-TAU-LNCaP-infected cells” value in assay [2] is listed as “abrogated NS3 production”.
